Entries after “also recorded” stand apart in the source; their conditions may differ. Like-named read-outs stand apart in the source and are kept apart here.
Assays:
Assay type in all cases: cell-based
[1] = system: breast cancer cell lines; assay: Aurora kinase inhibitor sensitivity of breast cancer cell lines by Agro, TN and iBCR score (two published studies)
Method: Two studies which treated breast cancer cell lines with Aurora kinase inhibitors were analyzed based on the Agro, TN and the iBCR score for these cell lines.

[2] = system: breast cancer cell lines (TNBC and non-TNBC); assay: Cell survival (CellTiter 96 MTS/MTA assay) of breast cancer cell lines after drug treatment; conditions: 6 days; for survival of cells, combination of TTKi with docetaxel: very low (sub-lethal) doses, TNBC cell lines which overexpress TTK vs cell lines which do not
Method: FIG. 5: Therapeutic targets in the aggressiveness gene list. (A) The TNBC cell lines, MDA-MB-231, SUM159PT and Hs578T were treated with control siRNA (Scrambled, Sc CTRL) or siRNA targeting the specified genes and the survival of these cells was compared on day 6. Data shown is the average from the three cell lines where each cell line was treated in triplicate. * p<0.05, ** p<0.01 and *** <0.001 from One-Way ANOVA analysis performed using GraphPad® Prism. (B) A panel of breast cancer cell lines was used to prepare lysates for immunoblotting of TTK. Tubulin was used as the loading control. (C) Dose response curves for the treatment of breast cancer cell lines in the absence or presence of escalating doses of the TTK inhibitor (TTKi) AZ3146. The survival of cells was measured using the CellTitre® MTS/MTA assay carried out 6 days after treatment. Percentage survival (n=3 per dose) was calculated as the percentage of the signal from treated cells to that from control cells. […]
FIG. 7: TTK associates with aggressive subtypes and is a therapeutic target. […] The survival of cells was measured using the MTS/MTA assay as described in Methods. *** p<0.001 comparing the combination to single agents and to non-TNBC cell lines from Two-Way Anova in GraphPad® Prism. […]
Breast cancer cell lines were obtained from ATCC™ (VA, USA) and cultured as per ATCC™ instructions. […] Six days after siRNA knockdown or after drug treatments the survival of cells in comparison to control was determined using the CellTiter 96® Assay as per manufacturer instructions (Promega Corporation, WI, USA). For immunoblotting, standard protocols were used and membranes were probed with antibodies against TTK (anti-MPS1 mouse monoclonal antibody [N1] ab11108 (Abcam, Cambridge), and γ-tubulin (Sigma-Aldrich®) then developed using chemiluminescence reagent plus (Milipore, MA, USA). Flow cytometry to quantify apoptosis was performed using Annexin V-Alexa488 and 7-AAD (Life Technologies) as per manufacturer instruction using BD FACSCanto II™ flow cytometer (BD Biosciences, CA, USA).

[3] = system: MDA-MB-231 cells; assay: Apoptosis assay by flow cytometry (Annexin V / 7-AAD); conditions: MDA-MB-231, collected at 96 hours
Source text: FIG. 7: TTK associates with aggressive subtypes and is a therapeutic target. (A) Kaplan-Meier survival curves are shown for Grade 3 tumors, lymph node positive patients (LN^+) and LN^+ patients with grade 3 tumors. Log-rank Test and p-value were used for these survival curves. For patients with TNBC, and HER2, survival was statistically significant using the Gehan-Breslow-Wilcoxon test (p-values marked by asterisks) which gives more weight to deaths at early time points. […] Survival curves and statistical analyses were performed using GraphPad® Prism. (B) TNBC and non-TNBC cell lines were treated for 6 days with the specified concentrations of docetaxel (doc) alone, TTK inhibitor (TTKi) alone of the combinations. The survival of cells was measured using the MTS/MTA assay as described in Methods. *** p<0.001 comparing the combination to single agents and to non-TNBC cell lines from Two-Way Anova in GraphPad® Prism. (C) MDA-MB-231 cells were treated with docetaxel or TTKi alone or in combination and collected at 96 hours to perform apoptosis assays by flow cytometry. […]
Breast cancer cell lines were obtained from ATCC™ (VA, USA) and cultured as per ATCC™ instructions. […] Six days after siRNA knockdown or after drug treatments the survival of cells in comparison to control was determined using the CellTiter 96® Assay as per manufacturer instructions (Promega Corporation, WI, USA). […]

[4] = high iBCR score breast cancer cell lines, read-out: IC50, high iBCR score cell lines
[5] = low iBCR score breast cancer cell lines, read-out: IC50, low iBCR score cell lines

IC50 [1, 4] [nM]	IC50 [1, 5] [nM]	Compound	survival of cells, combination of TTKi with docetaxel [2]	apoptotic cell death, combination of TTKi with docetaxel [3]	sensitivity (survival of cells) to the TTK inhibitor ([2]; panel of breast cancer cell lines, TNBC cell lines vs other cell lines)
0.3	0.7	Cc1csc(-c2nnc(Nc3ccc(Oc4ncccc4-c4ccnc(N)n4)cc3)c3ccccc23)c1 [AMG 900]	–	–	–
1400	5900	Cc1cc(Nc2cc(N3CCN(C)CC3)nc(/C=C/c3ccccc3)n2)n[nH]1 [ENMD-2076]	–	–	–
–	–	CC(=O)O[C@@]12CO[C@@H]1C[C@H](O)[C@@]1(C)C(=O)[C@H](O)C3=C(C)[C@@H](OC(=O)[C@H](O)[C@@H](NC(=O)OC(C)(C)C)c4ccccc4)C[C@@](O)([C@@H](OC(=O)c4ccccc4)[C@H]21)C3(C)C [docetaxel]	synergized	induced apoptotic cell death	–
–	–	AZ3146	synergized with docetaxel	induced apoptotic cell death	effective against TNBC cell lines; also recorded: TNBC cell lines were more sensitive

From US20170107577A1, “Determining Cancer Aggressiveness, Prognosis and Responsiveness to Treatment” (THE COUNCIL OF THE QUEENSLAND INSTITUTE OF MEDICAL RESEARCH, priority 2014, published 2017)
